For nine compounds, MIC results are on record in EP0091302A1, “Beta-lactam derivatives” (BEECHAM GROUP PLC, priority 1982, dated 1983).

Common to all, as to assay: Antibacterial activity (MIC)
What all share (assay type): cell-based

Assay [1] deals with Ps aeruginosa Dalgleish 10-^2.
In another assay the test system is Ps. aeruginosa 10662. As to conditions: Pseudomonas aeruginosa.
Another assay concerns E. coli ESS. As to conditions: Escherichia coli.
Another assay concerns E. coli JT4. The settings on record: Escherichia coli.
The subject of a further assay is N catarrhalis 1502.
Another assay relates to Ps. aeruginosa Dalgleish. The settings on record: Pseudomonas aeruginosa.
Setting [2] is: Pseudomonas aeruginosa, Ps. aeruginosa 10^-2.

Structures are written as SMILES. Some results are limits rather than exact numbers.

The term MIC denotes the smallest concentration in the dilution series that meets the test's criterion for growth inhibition. A higher MIC goes with weaker potency. Regarding `CO[C@@]1(NC(=O)[C@@H](c2cc(OC(C)=O)c(OC(C)=O)cc2Cl)S(=O)(=O)O)C(=O)N2[C@@H](C(=O)O)C(C)(C)S[C@@H]21` [Example 5, Disodium 6,B-[R-2-(2-chloro-4,5-diacetoxyphenyl)-2-sulphoacetamido]-6,a-methoxypenicillanate], the minimal inhibitory concentration (MIC) is 1 µg/mL in assay [1] (setting [2]); 5 µg/mL in the assay with Ps. aeruginosa 10662; 0.2 µg/mL in the assay with E. coli ESS; 0.5 µg/mL against E. coli JT4; < 0.02 µg/mL in the assay on N catarrhalis 1502.

For `CO[C@@]1(NC(=O)[C@H](c2cc(OC(C)=O)c(OC(C)=O)cc2C)S(=O)(=O)O)C(=O)N2[C@@H](C(=O)O)C(C)(C)S[C@@H]21` [Example 6vii, Disodium 6,β-[S-2-(4,5-diacetoxy-2-methylphenyl)-2-sulphoacetamido]-6,a-methoxypenicillanate], the MIC against Ps. aeruginosa 10662 stood at 128 µg/mL; in the assay with Ps. aeruginosa Dalgleish it was 128 µg/mL; with E. coli ESS, 32 µg/mL; against E. coli JT4, 64 µg/mL.

Turning to `CO[C@@]1(NC(=O)[C@@H](c2cc(C)c(OC(C)=O)c(OC(C)=O)c2)S(=O)(=O)O)C(=O)N2[C@@H](C(=O)O)C(C)(C)S[C@@H]21` [Example 7, Disodium 6,β-[R-2-(4,5-diacetoxy-3-methylphenyl)-2-sulphoacetamido]-6,a-methoxypenicillanate], the MIC in the assay on Ps. aeruginosa 10662 was 16 µg/mL; with Ps. aeruginosa Dalgleish it was 8 µg/mL; in the assay with E. coli ESS, 0.5 µg/mL; in the assay with E. coli JT4, 8 µg/mL.

In the case of `CO[C@@]1(NC(=O)C(c2cc(O)c(O)c([N+](=O)[O-])c2)S(=O)(=O)O)C(=O)N2[C@@H](C(=O)O)C(C)(C)S[C@@H]21` (stereo partly drawn) [Example 2, Disodium 6,β-[R,S-2-(3,4-dihydroxy-5-nitrophenyl)-2-sulphoacetamido]-6,α-methoxypenicillanate], the minimum inhibitory concentration (MIC) was 1 µg/mL in assay [1] (Ps aeruginosa Dalgleish 10-^2); 5 µg/mL with Ps. aeruginosa 10662; 0.2 µg/mL in the assay with E. coli ESS; 2.5 µg/mL in the assay with E. coli JT4; < 0.02 µg/mL against N catarrhalis 1502.

On to `CO[C@@]1(NC(=O)[C@@H](c2cc(OC(C)=O)c(OC(C)=O)c(Cl)c2Cl)S(=O)(=O)O)C(=O)N2[C@@H](C(=O)O)C(C)(C)S[C@@H]21` [Example 8, Disodium 6,β-[R-2-(4,5-diacetoxy-2,3-dichlorophenyl)-2-sulphoacetamido]-6,a-methoxypenicillanate], for which the MIC against Ps. aeruginosa 10662 came out at 2 µg/mL; with Ps. aeruginosa Dalgleish, 2 µg/mL; in the assay on E. coli ESS it was 0.25 µg/mL; against E. coli JT4, 1 µg/mL.

With `CO[C@@]1(NC(=O)[C@@H](c2cc(Cl)c(OC(C)=O)c(OC(C)=O)c2)S(=O)(=O)O)C(=O)N2[C@@H](C(=O)O)C(C)(C)S[C@@H]21` [Example 4v, Disodium 6,β-[R-2-(3-chloro-4,5-diacetoxyphenyl)-2-sulphoacetamido]-6,a-methoxypenicillanate], the MIC in assay [1] (setting [2]) is 0.25 µg/mL; against Ps. aeruginosa 10662 it was 0.5 µg/mL; against E. coli ESS it was 0.05 µg/mL; against E. coli JT4 it was 0.25 µg/mL; against N catarrhalis 1502, < 0.01 µg/mL.

In the case of `CO[C@@]1(NC(=O)[C@@H](c2cc(O)c(O)c(Cl)c2)S(=O)(=O)O)C(=O)N2[C@@H](C(=O)O)C(C)(C)S[C@@H]21` [Example 4vi, Disodium 6,B-[R-2-(3-chloro-4,5-dihydroxyphenyl)-2-sulphoacetamido]-6,a-methoxypenicillanate], the MIC in assay [1] (setting [2]) is 0.5 µg/mL; with Ps. aeruginosa 10662 it was 2.5 µg/mL; against E. coli ESS, 0.05 µg/mL; against E. coli JT4, 0.5 µg/mL; in the assay with N catarrhalis 1502 it was < 0.02 µg/mL.

`CO[C@@]1(NC(=O)[C@@H](c2cc(OC(C)=O)c(OC(C)=O)cc2C)S(=O)(=O)O)C(=O)N2[C@@H](C(=O)O)C(C)(C)S[C@@H]21` [Example 6vi, Disodium 6,β-[R-2-(4,5-diacetoxy-2-methylphenyl)-2-sulphoacetamido]-6,a-methoxypenicillanate]: the MIC was 16 µg/mL against Ps. aeruginosa 10662, 4 µg/mL in the assay with Ps. aeruginosa Dalgleish, 4 µg/mL in the assay on E. coli ESS and 16 µg/mL with E. coli JT4.

With `CO[C@@]1(NC(=O)C(c2cc(N)c(O)c(O)c2)S(=O)(=O)O)C(=O)N2[C@@H](C(=O)O)C(C)(C)S[C@@H]21` (stereo partly drawn) [Example 1, Disodium 6,β-[R,S-2-(5-amino-3,4-dihydroxyphenyl)-2-sulphoacetamido]-6,α-methoxy penicillanate], the MIC in assay [1] (Ps aeruginosa Dalgleish 10-^2) is 50 µg/mL; against Ps. aeruginosa 10662, 50 µg/mL; against E. coli ESS it was 5 µg/mL; against E. coli JT4 it was 25 µg/mL; in the assay with N catarrhalis 1502 it was < 0.2 µg/mL.
